Measurements published in ChEMBL document CHEMBL1150798, “Combined therapies in a murine model of blastoschizomycosis” (2007).
Converted amounts (≈) assume the structure as drawn. Starred links: 1 amine or outer side, 2 acyl side, 3 side chain; linkers in the order of their positions; H or OH if unused. Positions of bridges follow the written chain, without caps; N, C: chain ends. Non-standard residues stand in square brackets, D forms with d. Residues, ends and D or L forms follow the SMILES beside them. *: point of attachment. hTyr(3S-OH,4S-OH,3'-OSO3H) = N[C@H](C(=O)O)[C@H](O)[C@@H](O)c1ccc(O)c(OS(=O)(=O)O)c1; Orn(4R-OH,5R-OH) = O=C([C@H](C[C@@H](O)[C@@H](O)N[*:3])N[*:1])[*:2]; Pro(3S-OH,4S-Me) = C[C@H]1CN[C@H](C(=O)O)[C@H]1O; X1 = CCCCCOc1ccc(-c2cc(-c3ccc(C(=O)*)cc3)no2)cc1; Gln(3R-OH) = NC(=O)C[C@@H](O)[C@H](N)C(=O)O; Hyp = O=C(O)[C@@H]1C[C@@H](O)CN1

Key:
Assay type in all cases: functional
[1] = test system: Magnusiomyces capitatus; assay: Antimicrobial activity against Blastoschizomyces capitatus IHEM 5666 isolate by microdilution method
[2] = test system: Magnusiomyces capitatus; assay: Antimicrobial activity against Blastoschizomyces capitatus IHEM 16105 isolate infected OF1 mouse blastoschizomycosis model assessed as mean survival time at 1 mg/kg/day, ip for 6 days administered 1 hr before microbial challenge; conditions: route intraperitoneal
[3] = test system: Magnusiomyces capitatus; assay: Antimicrobial activity against Blastoschizomyces capitatus IHEM 5666 isolate infected OF1 mouse blastoschizomycosis model assessed as mean survival time at 1 mg/kg/day, ip for 6 days administered 1 hr before microbial challenge; conditions: route intraperitoneal
[4] = test system: Magnusiomyces capitatus; assay: Antimicrobial activity against Blastoschizomyces capitatus IHEM 16105 isolate infected OF1 mouse blastoschizomycosis model assessed as liver microbial count per gram of tissue at 1 mg/kg/day, ip for 6 days administered 1 hr before microbial challenge; conditions: route intraperitoneal
[5] = test system: Magnusiomyces capitatus; assay: Antimicrobial activity against Blastoschizomyces capitatus IHEM 16105 isolate infected OF1 mouse blastoschizomycosis model assessed as spleen microbial count per gram of tissue at 1 mg/kg/day, ip for 6 days administered 1 hr before microbial challenge; conditions: route intraperitoneal
[6] = test system: Magnusiomyces capitatus; assay: Antimicrobial activity against Blastoschizomyces capitatus IHEM 16105 isolate infected OF1 mouse blastoschizomycosis model assessed as kidney microbial count per gram of tissue at 1 mg/kg/day, ip for 6 days administered 1 hr before microbial challenge; conditions: route intraperitoneal
[7] = test system: Magnusiomyces capitatus; assay: Antimicrobial activity against Blastoschizomyces capitatus IHEM 5666 isolate infected OF1 mouse blastoschizomycosis model assessed as liver microbial count at 1 mg/kg/day, ip for 6 days administered 1 hr before microbial challenge; conditions: route intraperitoneal
[8] = test system: Magnusiomyces capitatus; assay: Antimicrobial activity against Blastoschizomyces capitatus IHEM 5666 isolate infected OF1 mouse blastoschizomycosis model assessed as spleen microbial count at 1 mg/kg/day, ip for 6 days administered 1 hr before microbial challenge; conditions: route intraperitoneal
[9] = test system: Magnusiomyces capitatus; assay: Antimicrobial activity against Blastoschizomyces capitatus IHEM 5666 isolate infected OF1 mouse blastoschizomycosis model assessed as kidney microbial count at 1 mg/kg/day, ip for 6 days administered 1 hr before microbial challenge; conditions: route intraperitoneal
[10] = test system: Magnusiomyces capitatus; assay: Antimicrobial activity against Blastoschizomyces capitatus IHEM 16105 isolate infected OF1 mouse blastoschizomycosis model assessed as mean survival time at 80 mg/kg/day, po for 6 days administered 1 hr before microbial challenge
[11] = test system: Magnusiomyces capitatus; assay: Antimicrobial activity against Blastoschizomyces capitatus IHEM 5666 isolate infected OF1 mouse blastoschizomycosis model assessed as mean survival time at 80 mg/kg/day, po for 6 days administered 1 hr before microbial challenge
[12] = test system: Magnusiomyces capitatus; assay: Antimicrobial activity against Blastoschizomyces capitatus IHEM 16105 isolate infected OF1 mouse blastoschizomycosis model assessed as liver microbial count per gram of tissue at 80 mg/kg/day, po for 6 days administered 1 hr before microbial challenge
[13] = test system: Magnusiomyces capitatus; assay: Antimicrobial activity against Blastoschizomyces capitatus IHEM 16105 isolate infected OF1 mouse blastoschizomycosis model assessed as spleen microbial count per gram of tissue at 80 mg/kg/day, po for 6 days administered 1 hr before microbial challenge
[14] = test system: Magnusiomyces capitatus; assay: Antimicrobial activity against Blastoschizomyces capitatus IHEM 16105 isolate infected OF1 mouse blastoschizomycosis model assessed as kidney microbial count per gram of tissue at 80 mg/kg/day, po for 6 days administered 1 hr before microbial challenge
[15] = test system: Magnusiomyces capitatus; assay: Antimicrobial activity against Blastoschizomyces capitatus IHEM 5666 isolate infected OF1 mouse blastoschizomycosis model assessed as liver microbial count per gram of tissue at 80 mg/kg/day, po for 6 days administered 1 hr before microbial challenge
[16] = test system: Magnusiomyces capitatus; assay: Antimicrobial activity against Blastoschizomyces capitatus IHEM 5666 isolate infected OF1 mouse blastoschizomycosis model assessed as spleen microbial count per gram of tissue at 80 mg/kg/day, po for 6 days administered 1 hr before microbial challenge
[17] = test system: Magnusiomyces capitatus; assay: Antimicrobial activity against Blastoschizomyces capitatus IHEM 5666 isolate infected OF1 mouse blastoschizomycosis model assessed as kidney microbial count per gram of tissue at 80 mg/kg/day, po for 6 days administered 1 hr before microbial challenge
[18] = test system: Magnusiomyces capitatus; assay: Antimicrobial activity against Blastoschizomyces capitatus IHEM 16105 isolate infected OF1 mouse blastoschizomycosis model assessed as spleen microbial count per gram of tissue at 60 mg/kg/day, po for 6 days administered 1 hr before microbial challenge
[19] = test system: Magnusiomyces capitatus; assay: Antimicrobial activity against Blastoschizomyces capitatus IHEM 16105 isolate by microdilution method
[20] = test system: Magnusiomyces capitatus; assay: Antimicrobial activity against Blastoschizomyces capitatus IHEM 16105 isolate infected OF1 mouse blastoschizomycosis model assessed as mean survival time at 60 mg/kg/day, po for 6 days administered 1 hr before microbial challenge
[21] = test system: Magnusiomyces capitatus; assay: Antimicrobial activity against Blastoschizomyces capitatus IHEM 5666 isolate infected OF1 mouse blastoschizomycosis model assessed as mean survival time at 60 mg/kg/day, po for 6 days administered 1 hr before microbial challenge
[22] = test system: Magnusiomyces capitatus; assay: Antimicrobial activity against Blastoschizomyces capitatus IHEM 16105 isolate infected OF1 mouse blastoschizomycosis model assessed as liver microbial count per gram of tissue at 60 mg/kg/day, po for 6 days administered 1 hr before microbial challenge
[23] = test system: Magnusiomyces capitatus; assay: Antimicrobial activity against Blastoschizomyces capitatus IHEM 16105 isolate infected OF1 mouse blastoschizomycosis model assessed as kidney microbial count per gram of tissue at 60 mg/kg/day, po for 6 days administered 1 hr before microbial challenge
[24] = test system: Magnusiomyces capitatus; assay: Antimicrobial activity against Blastoschizomyces capitatus IHEM 5666 isolate infected OF1 mouse blastoschizomycosis model assessed as liver microbial count at 60 mg/kg/day, po for 6 days administered 1 hr before microbial challenge
[25] = test system: Magnusiomyces capitatus; assay: Antimicrobial activity against Blastoschizomyces capitatus IHEM 5666 isolate infected OF1 mouse blastoschizomycosis model assessed as spleen microbial count at 60 mg/kg/day, po for 6 days administered 1 hr before microbial challenge
[26] = test system: Magnusiomyces capitatus; assay: Antimicrobial activity against Blastoschizomyces capitatus IHEM 5666 isolate infected OF1 mouse blastoschizomycosis model assessed as kidney microbial count at 60 mg/kg/day, po for 6 days administered 1 hr before microbial challenge
[27] = test system: Magnusiomyces capitatus; assay: Antimicrobial activity against Blastoschizomyces capitatus IHEM 5666 isolate infected OF1 mouse blastoschizomycosis model assessed as spleen microbial count at 10 mg/kg/day, sc for 6 days administered 1 hr before microbial challenge; conditions: route subcutaneous
[28] = test system: Magnusiomyces capitatus; assay: Antimicrobial activity against Blastoschizomyces capitatus IHEM 5666 isolate infected OF1 mouse blastoschizomycosis model assessed as kidney microbial count at 10 mg/kg/day, sc for 6 days administered 1 hr before microbial challenge; conditions: route subcutaneous
[29] = test system: Magnusiomyces capitatus; assay: Antimicrobial activity against Blastoschizomyces capitatus IHEM 16105 isolate infected OF1 mouse blastoschizomycosis model assessed as mean survival time at 10 mg/kg/day, sc for 6 days administered 1 hr before microbial challenge; conditions: route subcutaneous
[30] = test system: Magnusiomyces capitatus; assay: Antimicrobial activity against Blastoschizomyces capitatus IHEM 5666 isolate infected OF1 mouse blastoschizomycosis model assessed as mean survival time at 10 mg/kg/day, sc for 6 days administered 1 hr before microbial challenge; conditions: route subcutaneous
[31] = test system: Magnusiomyces capitatus; assay: Antimicrobial activity against Blastoschizomyces capitatus IHEM 16105 isolate infected OF1 mouse blastoschizomycosis model assessed as liver microbial count per gram of tissue at 10 mg/kg/day, sc for 6 days administered 1 hr before microbial challenge; conditions: route subcutaneous
[32] = test system: Magnusiomyces capitatus; assay: Antimicrobial activity against Blastoschizomyces capitatus IHEM 16105 isolate infected OF1 mouse blastoschizomycosis model assessed as spleen microbial count per gram of tissue at 10 mg/kg/day, sc for 6 days administered 1 hr before microbial challenge; conditions: route subcutaneous
[33] = test system: Magnusiomyces capitatus; assay: Antimicrobial activity against Blastoschizomyces capitatus IHEM 16105 isolate infected OF1 mouse blastoschizomycosis model assessed as kidney microbial count per gram of tissue at 10 mg/kg/day, sc for 6 days administered 1 hr before microbial challenge; conditions: route subcutaneous
[34] = test system: Magnusiomyces capitatus; assay: Antimicrobial activity against Blastoschizomyces capitatus IHEM 5666 isolate infected OF1 mouse blastoschizomycosis model assessed as liver microbial count at 10 mg/kg/day, sc for 6 days administered 1 hr before microbial challenge; conditions: route subcutaneous
[35] = test system: Magnusiomyces capitatus; assay: Antimicrobial activity against Blastoschizomyces capitatus IHEM 16105 isolate infected OF1 mouse blastoschizomycosis model assessed as mean survival time at 40 mg/kg/day, po for 6 days administered 1 hr before microbial challenge
[36] = test system: Magnusiomyces capitatus; assay: Antimicrobial activity against Blastoschizomyces capitatus IHEM 5666 isolate infected OF1 mouse blastoschizomycosis model assessed as mean survival time at 40 mg/kg/day, po for 6 days administered 1 hr before microbial challenge
[37] = test system: Magnusiomyces capitatus; assay: Antimicrobial activity against Blastoschizomyces capitatus IHEM 16105 isolate infected OF1 mouse blastoschizomycosis model assessed as liver microbial count per gram of tissue at 40 mg/kg/day, po for 6 days administered 1 hr before microbial challenge
[38] = test system: Magnusiomyces capitatus; assay: Antimicrobial activity against Blastoschizomyces capitatus IHEM 16105 isolate infected OF1 mouse blastoschizomycosis model assessed as spleen microbial count per gram of tissue at 40 mg/kg/day, po for 6 days administered 1 hr before microbial challenge
[39] = test system: Magnusiomyces capitatus; assay: Antimicrobial activity against Blastoschizomyces capitatus IHEM 16105 isolate infected OF1 mouse blastoschizomycosis model assessed as kidney microbial count per gram of tissue at 40 mg/kg/day, po for 6 days administered 1 hr before microbial challenge
[40] = test system: Magnusiomyces capitatus; assay: Antimicrobial activity against Blastoschizomyces capitatus IHEM 5666 isolate infected OF1 mouse blastoschizomycosis model assessed as liver microbial count at 40 mg/kg/day, po for 6 days administered 1 hr before microbial challenge
[41] = test system: Magnusiomyces capitatus; assay: Antimicrobial activity against Blastoschizomyces capitatus IHEM 5666 isolate infected OF1 mouse blastoschizomycosis model assessed as spleen microbial count at 40 mg/kg/day, po for 6 days administered 1 hr before microbial challenge
[42] = test system: Magnusiomyces capitatus; assay: Antimicrobial activity against Blastoschizomyces capitatus IHEM 5666 isolate infected OF1 mouse blastoschizomycosis model assessed as kidney microbial count at 40 mg/kg/day, po for 6 days administered 1 hr before microbial challenge

C[C@@H]1[C@H](O)[C@@H](C)/C=C/C=C/C=C/C=C/C=C/C=C/C=C/[C@H](O[C@@H]2O[C@H](C)[C@@H](O)[C@H](N)[C@@H]2O)C[C@@H]2O[C@](O)(C[C@@H](O)C[C@@H](O)[C@H](O)CC[C@@H](O)C[C@@H](O)CC(=O)O[C@H]1C)C[C@H](O)[C@H]2C(=O)O [AMPHOTERICIN B]
MIC [1]: 1 µg/mL (≈ 1.08 µM)
MST [2]: 12.3 days
MST [3]: 12.2 days
log10cfu [4]: 5.17
log10cfu [5]: 6.02
log10cfu [6]: 7
log10cfu [7]: 4.47
log10cfu [8]: 4.87
log10cfu [9]: 7.39

OC(Cn1cncn1)(Cn1cncn1)c1ccc(F)cc1F [FLUCONAZOLE]
MIC [1]: 16 µg/mL (≈ 52.2 µM)
MST [10]: 25.7 days
MST [11]: 30 days
log10cfu [12]: 1.37
log10cfu [13]: 1.59
log10cfu [14]: 3.72
log10cfu [15]: 2.49
log10cfu [16]: 2.05
log10cfu [17]: 4.31

Nc1nc(=O)[nH]cc1F [FLUCYTOSINE]
log10cfu [18]: 5.45
MIC [19]: 0.25 µg/mL (≈ 1.94 µM)
MIC [1]: 64 µg/mL (≈ 496 µM)
MST [20]: 17.7 days
MST [21]: 7.6 days
log10cfu [22]: 4.28
log10cfu [23]: 7.29
log10cfu [24]: 5.69
log10cfu [25]: 6.76
log10cfu [26]: 7.13

CCCCCOc1ccc(-c2cc(-c3ccc(C(=O)N[C@H]4C[C@@H](O)[C@@H](O)NC(=O)[C@@H]5[C@@H](O)[C@@H](C)CN5C(=O)[C@H]([C@H](O)CC(N)=O)NC(=O)[C@H]([C@H](O)[C@@H](O)c5ccc(O)c(OS(=O)(=O)O)c5)NC(=O)[C@@H]5C[C@@H](O)CN5C(=O)[C@H]([C@@H](C)O)NC4=O)cc3)no2)cc1 [MICAFUNGIN] (X1-[Orn(4R-OH,5R-OH)]T[Hyp][hTyr(3S-OH,4S-OH,3'-OSO3H)][Gln(3R-OH)][Pro(3S-OH,4S-Me)]; lactam 1-C)
log10cfu [27]: 7.03
log10cfu [28]: 7.52
MIC [19]: 64 µg/mL (≈ 50.4 µM)
MIC [1]: 64 µg/mL (≈ 50.4 µM)
MST [29]: 7.59 days
MST [30]: 6.6 days
log10cfu [31]: 5.26
log10cfu [32]: 7.69
log10cfu [33]: 7.5
log10cfu [34]: 5.32

C[C@@H](c1ncncc1F)[C@](O)(Cn1cncn1)c1ccc(F)cc1F [VORICONAZOLE]
MIC [19]: 1 µg/mL (≈ 2.86 µM)
MIC [1]: 0.25 µg/mL (≈ 0.716 µM)
MST [35]: 15.78 days
MST [36]: 17.1 days
log10cfu [37]: 4.33
log10cfu [38]: 5.56
log10cfu [39]: 6.98
log10cfu [40]: 5.63
log10cfu [41]: 4.75
log10cfu [42]: 6.78
